Counter-ions that a name gives are not always drawn.

In general, melting point refers to the temperature of the solid-liquid transition. For `COC(=O)c1ccc(Cn2c(=O)oc3ccc(C4(C(=O)N[C@H](CN5CCCC5)c5cccc(O)c5)CC4)cc32)cc1`, the melting point is 119 to 120 °C.
As to `O=C(N[C@H](CN1CCCC1)c1ccccc1)C1(c2ccc3[nH]cnc3c2)CC1` (stereo in doubt), the melting point lay within 127 to 129 °C.
On to `CC(C)(C)OC(=O)N[C@H]1CCN(C[C@@H](NC(=O)C2(c3cccc(NS(C)(=O)=O)c3)CC2)c2ccccc2)C1`, for which the melting point fell in the range of 66.3 to 66.5 °C.
For the molecule `O=C(N[C@H](CN1CCCC1)c1ccccc1)C1(c2ccc3[nH]c(=O)ccc3c2)CC1`, the melting point was in the range of 171 to 172 °C.
`O=C(N[C@H](CN1CC[C@H](O)C1)c1ccccc1)C1(c2ccncc2)CC1` had a melting point of 112 to 114 °C.
Molecule `CS(=O)(=O)Nc1cc(C2(C(=O)N[C@H](CN3CCCC3)c3ccccc3)CC2)ccc1F.Cl` (stereo in doubt) registered a melting point of 130 °C.
Under `CS(=O)(=O)Oc1cccc([C@@H](CN2CCCC2)NC(=O)C2(c3ccc4oc(=O)[nH]c4c3)CC2)c1` (as salt: trifluoroacetate) stands 101 to 103 °C.
In turn, `CN(C(=O)C1(c2ccccc2)CCCCC1)[C@H](CN1CCCC1)c1ccccc1.Cl` registered a melting point of 232 to 233 °C.
Consider `N#Cc1cccc([C@@H](CN2CCCC2)NC(=O)C2(c3ccc4oc(=O)[nH]c4c3)CC2)c1` (stereo in doubt), for which the melting point lay in the range of 106 to 108 °C.
Molecule `COc1ccc(C2(C(=O)N[C@H](CN3CCCC3)c3ccccc3)CC2)cc1NS(C)(=O)=O` (stereo in doubt) showed a melting point of 103 to 105 °C.
The molecule `Cc1ccc(C2(C(=O)N[C@H](CN3CCCC3)c3ccccc3)CC2)cc1NS(C)(=O)=O` (stereo in doubt) registered a melting point of 92 to 94 °C.
`CN(C(=O)C1(c2ccccc2)CC1)[C@H](CN1CCCC1)c1ccccc1.Cl` had a melting point of 216 to 217 °C.
In turn, `CS(=O)(=O)Nc1cc(C2(C(=O)N[C@H](CN3CCCC3)c3ccccc3)CC2)c(F)cc1F` (stereo in doubt) returned a melting point of 81.2 to 81.4 °C.
The molecule `O=C(N[C@H](CN1CCCC1)c1ccccc1)C1(c2ccc3[nH]ncc3c2)CC1` (stereo in doubt) came in with a melting point of 82 to 83 °C.
Take `COc1cccc([C@@H](CN2CCCC2)NC(=O)C2(c3ccc4oc(=O)[nH]c4c3)CC2)c1`: the melting point fell in the range of 92 to 94 °C.
Consider `CS(=O)(=O)Nc1cccc(C2(C(=O)N[C@@H](CN3CCCC3)c3cccc(OCc4ccccc4)c3)CC2)c1`, for which the melting point was in the range of 70 to 72 °C.
Molecule `O=C(N[C@H](CN1CCCC1)c1ccccc1)C1(c2ccc3oc(=O)[nH]c3c2)CC1` (stereo in doubt) came in with a melting point of 142 to 144 °C.
With `Cl.O=C(N[C@H](CN1CCCC1)c1ccccc1)C1(c2cccnc2)CC1`, the melting point lay in the range of 150 to 152 °C.
Under `CN(C)S(=O)(=O)c1ccccc1C1(C(=O)N[C@H](CN2CCCC2)c2ccccc2)CC1` stands 80 to 81 °C; under `O=C(N[C@H](CN1CCCC1)c1ccccc1)C1(c2nc3ccccc3s2)CC1`, 97 to 99 °C.
Consider `CN(C(=O)C1(c2cnc3ccccc3c2)CC1)[C@H](CN1CCCC1)c1ccccc1.Cl`, for which the melting point was in the range of 223 to 225 °C.
`Cl.O=C(N[C@H](CN1CCCC1)c1ccccc1)C1(c2ccccc2)CCCCC1`: the melting point is 204 to 205 °C.
Under `O=C(N[C@H](CN1CC[C@H](O)C1)c1ccccc1)C1(c2ccc3oc(=O)[nH]c3c2)CC1` stands 142 to 144 °C; under `CS(=O)(=O)Nc1cccc(C2(C(=O)N[C@H](CN3CCCC3)c3ccccc3)CC2)c1`, 146 to 148 °C.
Under `Cl.O=C(N[C@H](CN1CCCC1)c1ccccc1)C1(c2cccc(O)c2)CC1` stands 80 to 82 °C.
As to `Cl.O=C(O)Cn1c(=O)oc2ccc(C3(C(=O)N[C@H](CN4CCCC4)c4ccccc4)CC3)cc21`, the melting point lay in the range of 166 to 168 °C.
With `NC(=O)c1cccc([C@@H](CN2CCCC2)NC(=O)C2(c3ccc4oc(=O)[nH]c4c3)CC2)c1` the figure was 139 to 141 °C.

The values are drawn from patent US9303027B2 (dated 2016).
